The record followed here is patent publication US9340549B2, “Oxazolidinone compounds and derivatives thereof” (priority 2012, dated 2016).

The test system of experiment [1] is 8×TCF promoter-driven Firefly luciferase (Wnt reporter) in HEK-293 cells. Nature of the experiment: 2H9-STF assay, Wnt ligand activated HEK-293 assay in WT APC cellular context. The experiment is classed as cell-based. As to conditions: Homo sapiens. How it is done: HEK-293 cells engineered with an 8×TCF promoter-driven Firefly (FF) luciferase gene (Wnt reporter) along with an SV40 promoter-driven Renilla (RN) luciferase gene (control reporter) were used to measure the potency of tankyrase compounds in the context of Wnt ligand activation in a wild-type (non-APC mutated) cellular background. The engineered HEK-293 cells were plated (25 μL) at a density of 40,000 cells/well in black, clear-bottom, 96-well View plates (PerkinElmer) in normal growth medium (DMEM with 10% FBS with no antibiotics). Tankyrase inhibitors (5 μL) were transferred to cells from a three-fold serially diluted compound plate. A 10-point dilution series was tested starting at a concentration (10 μM final concentration in assay). Column 6 contained only DMSO and served as the “HI” control. Cells and compounds were incubated together for 1 hour at 37° C. after which the Wnt3a ligand (pathway inducer) was added to all wells except column 12 which served as the “LO” control. Twenty microliters of diluted recombinant mouse Wnt3a (R & D Systems) was added to the cells for a final concentration of 200 ng/mL (5 nM which is the Wnt3a˜EC80) and the plates were incubated at 37° C. for 18 to 24 hours. The Dual-Glo Reagents (Promega) were added as directed by manufacturer to assay the FF and RN luciferase activity. Luciferase activity was measures using the EnVision multilabel plate reader (PerkinElmer).

For experiment [2], the target named is 6×HIS-tankyrase 1 (1091-1325) (Homo sapiens (Human), UniProt O95271). Kind of experiment: biochemical. It is filed as biochemical. Particulars: […] enzyme, 400 nM NAD, 60 minutes at room temperature; read-out: TNKS1 IP IC50.
Sequence of 6×HIS-tankyrase 1 (1091-1325) (O95271 1091-1325): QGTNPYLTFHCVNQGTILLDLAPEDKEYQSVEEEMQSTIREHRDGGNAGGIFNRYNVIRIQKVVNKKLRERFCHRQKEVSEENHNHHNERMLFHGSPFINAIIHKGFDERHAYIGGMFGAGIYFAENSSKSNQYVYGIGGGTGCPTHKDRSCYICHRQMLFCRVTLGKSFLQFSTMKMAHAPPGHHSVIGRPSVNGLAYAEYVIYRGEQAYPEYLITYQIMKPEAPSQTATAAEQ
The target of experiment [3] is 6×HIS-tankyrase 2 (946-1162) (Homo sapiens (Human), UniProt Q9H2K2). Kind of experiment: Tankyrase 2 biochemical assay (AlphaLisa, anti-PAR detection). Particulars: 4 nM enzyme, 250 nM NAD; read-out: TNKS2 IP IC50.
Sequence of 6×HIS-tankyrase 2 (946-1162) (Q9H2K2 946-1162): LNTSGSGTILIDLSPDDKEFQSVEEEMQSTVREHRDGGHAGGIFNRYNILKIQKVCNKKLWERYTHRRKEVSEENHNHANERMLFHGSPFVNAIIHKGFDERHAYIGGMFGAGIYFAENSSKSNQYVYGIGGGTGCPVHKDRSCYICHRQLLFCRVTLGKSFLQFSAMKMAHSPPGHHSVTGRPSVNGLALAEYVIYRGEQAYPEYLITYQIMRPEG
Experiment [4] relates to total β-catenin in SW480 colorectal cells. Nature of the experiment: cells. It is filed as cell-based. Particulars: Homo sapiens. In short, it runs like this:
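SW480 cells in growth medium (MEM alpha, 10% heat-inactivated FBS, 10 mM HEPES) treated with a 10-point, 3-fold dilution series of TNKS inhibitor for 40–48 h at 37 °C. Lysates run on an MSD sandwich immunoassay for total β-catenin, read by electrochemiluminescence.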

A further experiment deals with Axin2 in SW480 cells. Nature of the experiment: cells. The experiment is classed as cell-based. As to conditions: Homo sapiens, read-out: Axin2 384 IF EC50 IP. In short, it runs like this:
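SW480 cells treated 24 h at 37° C (0.5% DMSO final), fixed/permeabilized, immunostained for Axin2. ArrayScan imaging quantified ring-spot intensity; Axin2 accumulation expressed as percent of control, EC50 from concentration-response.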

Experiment [5] concerns 8×TCF promoter-driven Firefly luciferase (Wnt reporter) in DLD-1 colorectal cells. Nature of the experiment: DLD-1-STF assay, constitutively activated Wnt pathway in mutant APC cancer cell context. As to conditions: Homo sapiens. The experiment is classed as cell-based. How it is done: DLD-1-STF Assay. Constitutively Activated Wnt Pathway Assay in Mutant APC Cancer Cell Context
DLD-1 colorectal cells engineered with an 8×TCF promoter-driven Firefly (FF) luciferase gene (Wnt reporter) along with an EF1a promoter-driven Renilla (RN) luciferase gene (control reporter) were used to measure the potency of tankyrase compounds in the context of the constitutively activated Wnt pathway due to mutated APC in colorectal cancer cells. The engineered DLD-1 cells were plated (45 μL) at a density of 10,000 cells/well in black, clear-bottom, 96-well View plates (PerkinElmer) in normal growth medium (RPMI with 10% FBS with no antibiotics). Tankyrase inhibitors (5 μL) were transferred to cells from a three-fold serially diluted compound plate. A 10-point dilution series was tested starting at a concentration (10 μM final concentration in assay). Column 6 contained only DMSO and served as the “HI” control. […] The plates were incubated at 37° C. for 40 to 48 hours. The Dual-Glo Reagents (Promega) were added as directed by manufacturer to assay the FF and RN luciferase activity. Luciferase activity was measures using the EnVision multilabel plate reader (PerkinElmer).

A further experiment relates to SW480 cells. Kind of experiment: Colony formation assay. It is filed as cell-based. As to conditions: Homo sapiens, read-out: SW480 Colony Inhibition IC50. How it is done:
Colorectal cell lines grown under normal logarithmic growth conditions in 10% FBS were trypsinized, counted in a Vi-CELL Cell Viability Analyzer and diluted to 400 cells/mL in RPMI media containing 0.5% FBS. Cells were plated in 12 well plates using 0.5 mL of diluted cells for a total of 200 cells/well. Tankyrase inhibitors were diluted in RPMI (0.5% FBS) at 2× final concentration. Ten concentrations of compound were prepared starting at 20 μM and serially diluted by 2 fold and 0.5 mL of diluted compound was added to each well. The final concentration range tested was thus 10 μM down to 20 nM. Two additional wells per plate were treated with the vehicle control (0.1% DMSO). The cells were grown for 12 days with the media and the compounds changed at day 6. Colonies were visualized by fixing and staining with Crystal Violet dye diluted in 1× fixation solution (2% formaldehyde, 0.2%, glutaraldehyde in 1×PBS) for 30 minutes at room temperature. The plates were washed extensively and air dried. Images of plates were captured and the colony counts were performed using the Bioreader® (Biosys) reader.

[6] abbreviates: HEK293, HEK-293 reporter cells, 200 ng/mL mouse Wnt3a, 18 to 24 hours, read-out: 2H9-Wnt3a-STF-FF/RL * 100 IC50.
Setting [7] is: SW480 cells, 40 to 48 hours, top concentration 10 μM, read-out: SW480-Total β-Catenin IC50 IP.
Setting [8] is: SW480, 24 h, SW480 cells, 24 hours.
Setting [9] is: HEK293, read-out: 2H9-Wnt3a-STF-FF/RL * 100 IC50.
Where [10] appears, read: DLD-1 reporter cells, 40 to 48 hours, read-out: DLD1-STF-FF/RL * 100 IC50.

Read-outs that look alike come from different tables or passages of the source.

In the case of `CC1(C)OC(=O)N([C@H]2CC[C@H](C(=O)Nc3cccc4cccnc34)CC2)[C@H]1c1ccccc1` [Example 32, (1S,4r)-4-((S)-5,5-dimethyl-2-oxo-4-phenyloxazolidin-3-yl)-N-(quinolin-8-yl)cyclohexanecarboxamide], the IC50 in experiment [1] (setting [6]) is 92.8 nM.
Take `CC1(C)OC(=O)N(c2ccc(-c3cnc(N)c(-c4ccc5nncn5n4)c3)cc2)[C@H]1c1ccccc1` [Example 12, (S)-3-(4-(5-([1,2,4]triazolo[4,3-b]pyridazin-6-yl)-6-aminopyridin-3-yl)phenyl)-5,5-dimethyl-4-phenyloxazolidin-2-one]: the IC50 was 52.1 nM in experiment [2], 49.3 nM in experiment [3] and 212 nM in experiment [4] (setting [7]).
Take `CC1(C)OC(=O)N([C@H]2CC[C@H](n3c(=O)[nH]c4cccnc43)CC2)[C@H]1c1ccccc1` [Example 37, (S)-5,5-dimethyl-3-((1r,4S)-4-(2-oxo-1H-imidazo[4,5-b]pyridin-3(2H)-yl)cyclohexyl)-4-phenyloxazolidin-2-one]: the IC50 in experiment [4] (setting [7]) was 517 nM; in experiment [1] (setting [6]), 183 nM. Besides, the concentration for a half-maximal effect (EC50) with Axin2 in SW480 cells (setting [8]) amounted to 3580 nM.
For `CC1(C)OC(=O)N(c2ccc(-c3cc(-c4ncccn4)c[nH]c3=O)cc2)[C@H]1c1ccccc1` [Example 4, (S)-5,5-Dimethyl-3-(4-(2-oxo-5-(pyrimidin-2-yl)-1,2-dihydropyridin-3-yl)phenyl)-4-phenyloxazolidin-2-one], the IC50 in experiment [2] worked out at 76.9 nM; in experiment [3] it was 65.9 nM; in experiment [4] (SW480, read-out: SW480-Total β-Catenin IC50 IP), 750 nM; in experiment [1] (setting [9]), 290 nM. In addition, the EC50 in the experiment on Axin2 in SW480 cells (SW480, 24 h) stood at 2840 nM.
For the compound `CC1(C)OC(=O)N(c2ccc(-c3cnc(N)c(-c4ncccn4)c3)cc2)[C@H]1c1ccccc1` [Example 65, (S)-3-(4-(6-amino-5-(pyrimidin-2-yl)pyridin-3-yl)phenyl)-5,5-dimethyl-4-phenyloxazolidin-2-one], the IC50 stood at 49 nM in experiment [2]; 25.9 nM in experiment [3]; 233 nM in experiment [4] (setting [7]); 95.9 nM in experiment [1] (setting [6]); 107 nM in experiment [5] (setting [10]); 1300 nM in the experiment on SW480 cells (288 h, SW480, 0.5% FBS, 12 days). The EC50 with Axin2 in SW480 cells (setting [8]) is 1440 nM.
On to `CC1(C)OC(=O)N([C@H]2CC[C@H](n3c(=O)[nH]c4ccccc43)CC2)C1c1ccccc1` (stereo partly drawn) [Example 35, (R+S) 5,5-dimethyl-3-((1r,4r)-4-(2-oxo-2,3-dihydro-1H-benzo[d]imidazol-1-yl)cyclohexyl)-4-phenyloxazolidin-2-one], for which the IC50 was found to be 11.8 nM in experiment [2], 1330 nM in experiment [4] (setting [7]) and 543 nM in experiment [1] (setting [6]). In addition, the EC50 in the experiment on Axin2 in SW480 cells (setting [8]) turned out to be 6690 nM.
As to `CC1(C)OC(=O)N([C@H]2CC[C@H](n3c(=O)[nH]c4cnccc43)CC2)[C@H]1c1ccccc1` [Example 23, (S)-5,5-dimethyl-3-((1r,4S)-4-(2-oxo-2,3-dihydro-1H-imidazo[4,5-c]pyridin-1-yl)cyclohexyl)-4-phenyloxazolidin-2-one], the values for the IC50 in experiment [4] (setting [7]) and in experiment [5] (setting [10]) were 143 nM and 44 nM, respectively. For the same compound, the EC50 in the experiment on Axin2 in SW480 cells (setting [8]) was found to be 231 nM.
`CC1(C)OC(=O)N([C@H]2CC[C@H](NC(=O)c3cccc4cccnc34)CC2)[C@H]1c1ccccc1` [Example 26, N-((1S,4r)-4-((S)-5,5-dimethyl-2-oxo-4-phenyloxazolidin-3-yl)cyclohexyl)quinoline-8-carboxamide]: the IC50 in experiment [1] (setting [9]) is 55 nM; with SW480 cells (SW480, 288 h), 1300 nM.
Take `CC1(C)OC(=O)N(c2ccc(-c3cnc(N)c(-c4ncc(F)cn4)c3)cc2)[C@H]1c1ccccc1` [Example 64, (S)-3-(4-(6-amino-5-(5-fluoropyrimidin-2-yl)pyridin-3-yl)phenyl)-5,5-dimethyl-4-phenyloxazolidin-2-one]: the IC50 in experiment [2] stood at 85 nM; in experiment [3], 48.3 nM; in experiment [4] (setting [7]), 293 nM. The EC50 in the experiment with Axin2 in SW480 cells (setting [8]) came to 3230 nM.
With `CC1(C)OC(=O)N([C@H]2CC[C@H](n3c(=O)[nH]c4cc(C#N)ccc43)CC2)[C@H]1c1ccccc1` [Example 47, 1-((1S,4r)-4-((S)-5,5-dimethyl-2-oxo-4-phenyloxazolidin-3-yl)cyclohexyl)-2-oxo-2,3-dihydro-1H-benzo[d]imidazole-5-carbonitrile], the IC50 was found to be 53.7 nM in experiment [4] (setting [7]) and 12 nM in experiment [5] (DLD-1, read-out: DLD1-STF-FF/RL * 100 IC50). Besides, in the experiment on Axin2 in SW480 cells (SW480 cells, 24 hours), the half-maximal effective concentration (EC50) was found to be 72.9 nM.
As to `CC1(C)OC(=O)N([C@H]2CC[C@H](NC(=O)c3cccc4cccnc34)CC2)[C@@H]1c1ccccc1` (single isomer, unassigned) [Example 28], the IC50 in experiment [1] (setting [6]) came to 113 nM.
